This is an account of results in patent US7943646B2, “Benzamidine derivative, process for the preparation thereof and pharmaceutical composition comprising same” (Dong Wha Pharmaceutical Co., Ltd., priority 2006, dated 2011).

Read-outs that look alike come from different tables or passages of the source.

In data set [1] the test system is osteoclast differentiation. Briefly: Inhibitory effect on osteoclast differentiation, co-culture of bone marrow cells and osteoblast, TRAP staining. It counts as cell-based, mouse. The note with it: for inhibition at 1 µM: Mus musculus, Osteoclast, 168 h, read-out: inhibitory effect on osteoclast differentiation(%). Here is the method:
The effect of the benzamidine derivative of the present invention on osteoclast formation and differentiation process was evaluated via co-culture with an osteoblast.
Tibia was aseptically ectomized from male 6 to 8-week-old ddY mice to harvest bone marrow cells by using a syringe (21G, Korea Green Cross). The bone marrow cells were suspended in 5 mL of an α-MEM medium (Gibco BRL Co., added with sodium bicarbonate (2.0 g/L), streptomycin (100 mg/L) and penicillin ([…]), filtered and then sterilized). The harvested cells were centrifuged at 600×g for 5 mins to collect the whole quantity. To remove the red blood cells in the bone marrow cells, 3 mL of Tris HCl (0.83% NH4Cl, pH 7.5) was added and well mixed. After centrifuging above cells, the numbers of the eukaryotic cells in the harvested bone marrow cells were counted and then immediately used for a co-culture system.
The progenitor bone and the parietal bone were aseptically ectomized from 1 to 2-day-old neonate ICR mice, washed with a phosphate butter solution (PBS) and treated with a mixed enzyme solution (of 0.2% collagenase and 0.1% dispase) sequentially (10, 10, 10, 20, 20 and 20 min), and then 3 to 6 groups of the cells which comprise lot of cells having the characteristics of the osteoblast were intensively collected and washed with a medium (a serum-free α-MEM). The washed cells were cultured in the α-MEM medium containing 10% FBS for 2 to 3 days. After subculturing, the collected cells were used for this experiment, and diluted to a concentration of 1×10^6 cells/mL for storage at −70[…].
The benzamidine derivative of the present invention was dissolved in a sterile distilled water or ethanol to dilute to a desired concentration. The final volume of the sample added to the cell culture medium was set at a ratio of 1:1000.
The bone marrow cells prepared in the above 1-1 and the osteoblast were co-cultured for osteoclast differentiation. Both the bone marrow cells (25,000 cells/cm^2) and the osteoblast (10,000 cells/cm^2) were plated in a 96-well plate using α-MEM medium containing FBS, and then cultured with the samples to be tested for 7 days. Differentiation factors, such as dexamethasone (10^−7 M) and vitamin D3 (10^−8 M), were also co-added to the medium from the first day of cultivation. The medium was changed with a fresh media containing a mixture of the samples and the differentiation factors every 2 to 3 days.
TRAP was used as a marker to measure the matured osteoclast in consideration of its characteristics showing a positive reaction to a TRAP staining solution. The TRAP staining solution was prepared in such the manner that 5 mg of naphtol AS-MS phosphate (sigma N-4875) as a substrate, and 25 mg of a coloring agent (Fast Red Violet LB salt) were dissolved in N,N-dimethylformamide (about 0.5 mL). 50 ml of a 0.1 N NaHCO3 buffer solution containing 50 mM tartaric acid (pH 5.0) was added thereto, and the mixture was stored at a refrigerator prior to use as a staining solution.
After culturing the cells for 7 days, the medium was removed from the wells, the cells were once washed with PBS, and then fixed with PBS containing 10% formalin for 2 to 5 min. The cells were fixed again in a mixed solution of ethanol and acetone (1/1) for about 1 min, and dried off. The cells were further treated by the TRAP staining solution for 15 mins and washed with water and dried off. The osteoclasts with 3 or more nuclei showing a TRAP-positive reaction were counted under a microscopic examination. Each of tests was confirmed over at least three times. The inhibitory effect on osteoclast differentiation of each experimental group, relative to negative controls, was expressed as a percentage (%).

The test system of data set [2] is MC3T3. The data set is described as follows: Cytotoxicity test (MTT), MC3T3. The settings on record: 10^−6M, 72 hrs, in comparison with the control group. Type of data set: cell-based. Here is the method: (§1) The cytotoxic effect of the benzamidine derivative of the present invention was evaluated by carrying out the experiment described below.
(§2) The test substance was diluted in an appropriate solvent at a 10^−2 M concentration. This substance was diluted in an appropriate culture medium for the cells used in the cytotoxicity test to a concentration of […], and loaded into a 96-well plate in 100 μl per well. The cell lines to be used in the cytotoxicity test were plated on a 96-well plate in a dose of 1.0×10^4 cells/1OO μl per well and cultured for 72 hrs. 25 μl of MTT [3-(4,5-dimethyl-2-thiazolyl)-2,5-diphenyl-2H-tetrazolium bromide] dissolved in PBS (2 mg/mL) were added before 4 hrs of the end of culture. After completion of the reaction, the plates were centrifuged, the medium was discarded and 100 μl of DMSO was added to dissolve formazan. Finally, the absorbance of the developed plates was measured at 540 nm. The survival rates of the cells were expressed as % concentration values in comparison with the control group.

Data set [3] relates to calvaria. The data set is described as follows: Cytotoxicity test (MTT), calvaria. Type of data set: cell-based. The settings on record: 10^−6M, 72 hrs, in comparison with the control group. The protocol:
as §1, §2

Data set [4] has as its system HOS. The data set is described as follows: Cytotoxicity test (MTT), HOS. Type of data set: cell-based. The note with it: 10^−6M, 72 hrs, in comparison with the control group. Here is the method:
as §1, §2

Setting [5] is: 1 μm, 7 days co-culture, TRAP-positive osteoclasts with 3 or more nuclei, relative to negative controls.

In the case of `N=C(NO)c1ccc(OCCCCCOc2ccc(-c3nc(C4CCCCC4)sc3CCNCCN3CCOCC3)cc2)cc1` [Example 35, N-hydroxy-4-[5-(4-{2-cyclohexyl-5-[2-(2-morpholin-4-yl-ethylamino)-ethyl]-thiazol-4-yl}-phenoxy)-pentyloxy]-benzamidine], the inhibition at 1 µM in data set [1] turned out to be 100%. Besides, the “survival rates of the cells” value in data set [2] was 98.6%; in data set [3], 81.6%; in data set [4] it was 115.7%.

For `CN(C)CCc1sc(C2CCCCC2)nc1-c1ccc(OCCCCCOc2ccc(C(=N)NO)cc2)cc1` [Example 37, N-hydroxy-4-(5-{4-[2-cyclohexyl-5-(2-dimethylamino-ethyl)-thiazol-4-yl]-phenoxy}-pentyloxy)-benzamidine], the inhibition at 1 µM in data set [1] (setting [5]) was 100%. Moreover, the figures for the “survival rates of the cells” value in data set [2], in data set [3] and in data set [4] were 94.9%, 84.7% and 116.7%, respectively.

In the case of `CCCN(CCC)CCc1sc(C2CCCCC2)nc1-c1ccc(OCCCCCOc2ccc(C(=N)NO)cc2)cc1` [Example 38, N-hydroxy-4-(5-{4-[2-cyclohexyl-5-(2-dipropylamino-ethyl)-thiazol-4-yl]-phenoxy}-pentyloxy)-benzamidine], the inhibition at 1 µM in data set [1] (setting [5]) was 100%. The results for the “survival rates of the cells” value in data set [2], in data set [3] and in data set [4] were 104.7%, 94.9% and 96.2%, respectively.

As to `N=C(NO)c1ccc(OCCCCCOc2ccc(-c3nc(C4CCCCC4)sc3CCNC3CC3)cc2)cc1` [Example 39, N-hydroxy-4-(5-{4-[2-cyclohexyl-5-(2-cyclopropylamino-ethyl)-thiazol-4-yl]-phenoxy}-pentyloxy)-benzamidine], the inhibition at 1 µM in data set [1] (setting [5]) turned out to be 100%. Besides, the figures for the “survival rates of the cells” value in data set [2], in data set [3] and in data set [4] were 85.0%, 93.1% and 111.0%, respectively.

In the case of `N=C(NO)c1ccc(OCCCCCOc2ccc(-c3nc(N)sc3CCNCCN3CCOCC3)cc2)cc1` [Example 40, N-hydroxy-4-[5-(4-{2-amino-5-[2-(2-morpholin-4-yl-ethylamino)-ethyl]-thiazol-4-yl}-phenoxy)-pentyloxy]-benzamidine], the inhibition at 1 µM in data set [1] (setting [5]) was 24.6%. The figures for the “survival rates of the cells” value in data set [2], in data set [3] and in data set [4] were 102.2%, 99.7% and 103.2%, respectively.

Consider `N=C(NO)c1ccc(OCCCCCOc2ccc(-c3nc(-c4ccccc4)sc3CCN3CCOCC3)cc2)cc1` [Example 41, N-hydroxy-4-(5-{4-[5-(2-morpholin-4-yl-ethyl)-2-phenyl-thiazol-4-yl]-phenoxy}-pentloxy)-benzamidine], for which the “inhibitory effect on osteoclast differentiation(%)” value in data set [1] (setting [5]) is reported as 100%. The “survival rates of the cells” value is given as 85.9% in data set [2], 78.6% in data set [3] and 78.8% in data set [4].

Regarding `CCc1nc(-c2ccc(OCCCCCOc3ccc(C(=N)NO)cc3)cc2)c(CCN2CCOCC2)s1` [Example 42, N-hydroxy-4-(5-{4-[2-ethyl-5-(2-morpholin-4-yl-ethyl)-thiazol-4-yl]-phenoxy}-pentyloxy)-benzamidine], the inhibition at 1 µM in data set [1] (setting [5]) turned out to be 100%. In addition, the “survival rates of the cells” value in data set [2] is 81.5%; in data set [3] it was 73.8%; in data set [4], 98.9%.

On to `CCc1nc(-c2ccc(OCCCCCOc3ccc(C(=N)NO)cc3)cc2)c(CCN2CCSCC2)s1` [Example 43, N-hydroxy-4-(5-{4-[2-ethyl-5-(2-thiomorpholin-4-yl-ethyl)-thiazol-4-yl]-phenoxy}-pentyloxy)-benzamidine], for which the inhibition at 1 µM in data set [1] (setting [5]) was determined as 97.7%. Moreover, the “survival rates of the cells” value is listed as 86.5% in data set [2], 91.9% in data set [3] and 80.4% in data set [4].

Regarding `Cc1nc(-c2ccc(OCCCCCOc3ccc(C(=N)N)cc3)cc2)c(CCN2CCOCC2)s1` [Example 46, 4-(5-{4-[2-methyl-5-(2-morpholin-4-yl-ethyl)-thiazol-4-yl]-phenoxy}-pentyloxy)-benzamidine], the inhibition at 1 µM in data set [1] (setting [5]) stood at 63.4%. The “survival rates of the cells” value in data set [2] came to 95.3%; in data set [3], 99.9%; in data set [4] it was 94.1%.

Take `CNc1nc(-c2ccc(OCCCCCOc3ccc(C(=N)NO)cc3)cc2)c(CCNCCN2CCOCC2)s1` [Example 50, N-hydroxy-4-[5-(4-{2-methylamino-5-[2-(2-morpholin-4-yl-ethylamino)-ethyl]-thiazol-4-yl}-phenoxy)-pentyloxy]-benzamidine]: the inhibition at 1 µM in data set [1] (setting [5]) amounted to 37%. The “survival rates of the cells” value in data set [2] is given as 97.2%; in data set [3], 92.8%; in data set [4] it was 93.6%.

Regarding `CNc1nc(-c2ccc(OCCCCCOc3ccc(C(=N)NO)cc3)cc2)c(CCNCCCn2ccnc2)s1` [Example 51, N-hydroxy-4-[5-(4-{5-[2-(3-imidazol-1-yl-propylamino)-ethyl]-2-methylamino-thiazol-4-yl}-phenoxy)-pentyloxy]-benzamidine], the inhibition at 1 µM in data set [1] (setting [5]) amounted to 32%. Further, the entries for the “survival rates of the cells” value in data set [2], in data set [3] and in data set [4] were 93.8%, 91.7% and 99.6%, respectively.

Take `N=C(NO)c1ccc(OCCCCCOc2ccc(-c3nc(N(CCN4CCOCC4)Cc4ccccc4)sc3CCN3CCOCC3)cc2)cc1` [Example 56, N-hydroxy-4-(5-{4-[2-[benzyl-(2-morpholin-4-yl-ethyl)-amino]-5-(2-morpholin-4-yl-ethyl)-thiazol-4-yl]-phenoxy}-pentyloxy)-benzamidine]: in data set [1] (setting [5]), the inhibition at 1 µM stood at 100%. Besides, the results for the “survival rates of the cells” value in data set [2], in data set [3] and in data set [4] were 86.0%, 84.0% and 98.8%, respectively.

Take `CCN(CC)c1nc(-c2ccc(OCCCCCOc3ccc(C(=N)NO)cc3)cc2)c(CCN2CCOCC2)s1` [Example 57, N-hydroxy-4-(5-{4-[2-diethylamino-5-(2-morpholin-4-yl-ethyl)-thiazol-4-yl]-phenoxy}-pentyloxy)-benzamidine]: the inhibition at 1 µM in data set [1] (setting [5]) is 100%. For the same molecule, the “survival rates of the cells” value in data set [2] is reported as 86.8%; in data set [3], 87.0%; in data set [4], 90.7%.

Take `N=C(NO)c1ccc(OCCCCCOc2ccc(-c3nc(C4CCCCC4)sc3CCN(C(=O)c3cccnc3)C3CC3)cc2)cc1` [Example 68, N-hydroxy-4-{5-[4-(2-cyclohexyl-5-{2-[cyclopropyl-(pyridine-3-carbonyl)-amino]ethyl}-thiazol-4-yl)-phenoxy]-pentyloxy}-benzamidine]: the “survival rates of the cells” value in data set [2] amounted to 90.3%; in data set [3], 91.4%; in data set [4], 82.9%.
